Measurements as given in ChEMBL document CHEMBL1201862, “PubChem BioAssay data set” (2004).
Activity calls are given as the source filed them.

Columns and labels:
[1] = target: T1, Corticotropin-releasing factor receptor 2/Corticotropin-releasing factor-binding protein (Homo sapiens, UniProt P24387+Q13324); assay: Dose Response confirmation of uHTS hits for small molecule antagonists of the CRF-binding protein and CRF-R2 receptor complex.; assay type: functional; settings: read-out: IC50_Mean
T1 sequence (Q13324 whole entry): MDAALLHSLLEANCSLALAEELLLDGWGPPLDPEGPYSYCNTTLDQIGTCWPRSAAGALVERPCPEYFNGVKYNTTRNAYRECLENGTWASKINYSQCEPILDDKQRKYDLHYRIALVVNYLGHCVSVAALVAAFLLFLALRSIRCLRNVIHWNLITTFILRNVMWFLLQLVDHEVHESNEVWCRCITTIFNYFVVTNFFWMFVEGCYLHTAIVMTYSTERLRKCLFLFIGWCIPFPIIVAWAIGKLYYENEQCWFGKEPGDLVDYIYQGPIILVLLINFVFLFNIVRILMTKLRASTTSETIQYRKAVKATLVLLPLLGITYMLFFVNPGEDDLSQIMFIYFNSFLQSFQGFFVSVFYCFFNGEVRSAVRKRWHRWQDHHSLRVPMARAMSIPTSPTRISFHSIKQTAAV
T1 sequence (P24387 whole entry): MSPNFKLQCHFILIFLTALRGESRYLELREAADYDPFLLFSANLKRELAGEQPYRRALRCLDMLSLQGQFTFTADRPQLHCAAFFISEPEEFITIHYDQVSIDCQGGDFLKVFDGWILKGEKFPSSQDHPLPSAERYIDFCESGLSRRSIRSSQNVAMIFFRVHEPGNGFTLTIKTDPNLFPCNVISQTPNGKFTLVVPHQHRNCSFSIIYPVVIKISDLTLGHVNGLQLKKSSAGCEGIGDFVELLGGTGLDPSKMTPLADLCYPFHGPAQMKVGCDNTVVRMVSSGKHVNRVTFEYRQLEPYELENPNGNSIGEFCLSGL

[2] = target: T1, Corticotropin-releasing factor receptor 2/Corticotropin-releasing factor-binding protein; assay: activators of CRF receptor 2 with binding protein – uHTS hits, confirmation (AID 602473); assay type: functional; settings: read-out: EC50_Mean
[3] = blockers of CRF-binding protein–CRF-R2 complex – cell-based, uHTS hits, 384-well, dose response (AID 651639); assay type: functional, Homo sapiens; settings: read-out: IC50_Mean
[4] = target: T2, Bcl-2-like protein 10 (Homo sapiens, UniProt Q9HD36); assay: Bcl-B/TR3 peptide binding disruption – biochemical, fluorescence polarization, FITC-TR3 peptide, selectivity assay for Bfl-1 inhibitor project, primary screen (AID 748);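 note: fluorescence polarization from a fluorescein-labelled TR3 peptide binding purified Bcl-B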
T2 sequence (Q9HD36 whole entry): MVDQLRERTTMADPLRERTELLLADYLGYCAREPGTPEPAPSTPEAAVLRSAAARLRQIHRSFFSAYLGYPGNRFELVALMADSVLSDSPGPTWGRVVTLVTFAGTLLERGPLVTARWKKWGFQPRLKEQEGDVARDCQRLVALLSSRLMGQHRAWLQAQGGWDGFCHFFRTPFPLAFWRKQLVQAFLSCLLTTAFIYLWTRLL

[5] = target: Induced myeloid leukemia cell differentiation protein Mcl-1 (Homo sapiens, UniProt Q07820); assay type: functional
Chain of Induced myeloid leukemia cell differentiation protein Mcl-1 (Q07820 whole entry): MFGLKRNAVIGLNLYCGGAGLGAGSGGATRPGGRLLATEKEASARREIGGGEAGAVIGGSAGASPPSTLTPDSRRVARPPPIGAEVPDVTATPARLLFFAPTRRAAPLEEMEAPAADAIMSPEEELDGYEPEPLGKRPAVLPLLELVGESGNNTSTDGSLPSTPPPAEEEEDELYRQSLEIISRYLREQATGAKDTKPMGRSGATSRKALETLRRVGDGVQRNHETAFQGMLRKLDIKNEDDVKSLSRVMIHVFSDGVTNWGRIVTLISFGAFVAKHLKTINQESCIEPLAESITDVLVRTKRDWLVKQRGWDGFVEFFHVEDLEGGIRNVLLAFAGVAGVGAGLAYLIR

[6] = target: Prothrombin (Homo sapiens, UniProt P00734); assay: Thrombin 1536 HTS Dose Response Confirmation. [Related pubchem assays: 1046 (Thrombin 1536 HTS; hits were confirmed in this assay)]; assay type: functional
[7] = target: T3, Insulin-degrading enzyme (Homo sapiens, UniProt P14735); assay: recombinant IDE activation, cell-free – biochemical, fluorescence polarization, counter-screen for IDE activator project, dose response (AID 588681)
T3 sequence (P14735 whole entry): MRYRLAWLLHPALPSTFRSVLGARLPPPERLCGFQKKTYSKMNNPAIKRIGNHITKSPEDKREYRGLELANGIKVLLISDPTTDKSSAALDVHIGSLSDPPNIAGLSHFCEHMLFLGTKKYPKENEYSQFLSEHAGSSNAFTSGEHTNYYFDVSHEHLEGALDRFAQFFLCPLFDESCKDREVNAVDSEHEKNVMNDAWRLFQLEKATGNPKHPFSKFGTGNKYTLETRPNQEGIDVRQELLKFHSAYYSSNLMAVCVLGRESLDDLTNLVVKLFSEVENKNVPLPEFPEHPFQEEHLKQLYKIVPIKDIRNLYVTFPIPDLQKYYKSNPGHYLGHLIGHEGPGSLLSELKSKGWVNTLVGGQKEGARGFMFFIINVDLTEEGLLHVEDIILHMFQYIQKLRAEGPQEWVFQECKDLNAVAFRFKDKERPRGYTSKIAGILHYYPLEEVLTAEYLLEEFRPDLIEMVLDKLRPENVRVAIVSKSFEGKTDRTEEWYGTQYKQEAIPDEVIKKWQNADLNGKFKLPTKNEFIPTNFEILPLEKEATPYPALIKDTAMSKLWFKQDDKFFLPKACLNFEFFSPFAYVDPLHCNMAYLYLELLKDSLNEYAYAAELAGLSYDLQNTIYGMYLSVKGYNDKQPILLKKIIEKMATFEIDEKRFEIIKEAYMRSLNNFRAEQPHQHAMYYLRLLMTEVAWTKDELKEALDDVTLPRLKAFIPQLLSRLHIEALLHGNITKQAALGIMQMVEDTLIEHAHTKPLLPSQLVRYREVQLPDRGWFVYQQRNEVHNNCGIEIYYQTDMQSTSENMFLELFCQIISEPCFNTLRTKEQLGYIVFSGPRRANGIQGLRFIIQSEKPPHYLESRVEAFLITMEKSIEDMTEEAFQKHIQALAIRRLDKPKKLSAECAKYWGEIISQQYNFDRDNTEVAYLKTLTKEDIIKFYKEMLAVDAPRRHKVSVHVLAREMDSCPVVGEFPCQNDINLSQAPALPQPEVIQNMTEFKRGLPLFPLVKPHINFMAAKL

[8] = system: HEK293; assay: optical interference in Abeta FP readout, dose response, artefact control for IDE activator project, biochemical, fluorescence polarization (AID 588442); assay type: functional, cell-based; settings: Homo sapiens
[9] = target: T3, Insulin-degrading enzyme; assay: cellular IDE activation of Abeta substrate cleavage – fluorescence polarization, HEK cells, dose response (AID 588439); assay type: functional, cell-based
[10] = system: HEK293; assay: membrane integrity loss in HEK cells – cell-based, fluorescence, cytotoxicity control for IDE activator project, dose response (AID 588440); assay type: functional; settings: Homo sapiens;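 note: cytotoxicity by LDH release measuring loss of membrane integrity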
[11] = target: T4, DNA repair protein RAD52 homolog (Homo sapiens, UniProt P43351); assay type: functional, biochemical
T4 sequence (P43351 whole entry): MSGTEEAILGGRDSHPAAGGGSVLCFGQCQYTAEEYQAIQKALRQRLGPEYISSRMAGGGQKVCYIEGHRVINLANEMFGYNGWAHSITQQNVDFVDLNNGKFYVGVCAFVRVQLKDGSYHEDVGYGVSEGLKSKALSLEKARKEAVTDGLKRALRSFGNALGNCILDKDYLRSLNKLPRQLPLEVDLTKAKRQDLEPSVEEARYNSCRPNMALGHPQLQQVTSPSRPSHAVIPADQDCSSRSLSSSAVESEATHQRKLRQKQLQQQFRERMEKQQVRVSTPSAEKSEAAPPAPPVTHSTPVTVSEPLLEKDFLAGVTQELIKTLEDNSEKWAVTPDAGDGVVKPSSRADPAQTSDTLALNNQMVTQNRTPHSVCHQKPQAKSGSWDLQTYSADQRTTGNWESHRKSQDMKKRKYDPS

[12] = target: T5, Ubiquitin-conjugating enzyme E2 N (Homo sapiens, UniProt P61088); assay type: functional;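 note: Dose-response confirmation in a TR-FRET assay detecting UBC13-driven polyubiquitin chain formation, inhibition measured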
T5 sequence (P61088 whole entry): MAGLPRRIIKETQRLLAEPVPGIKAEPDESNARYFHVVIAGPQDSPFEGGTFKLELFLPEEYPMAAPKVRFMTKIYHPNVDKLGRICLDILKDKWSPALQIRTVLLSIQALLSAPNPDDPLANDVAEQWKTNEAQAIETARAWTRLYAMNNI

[13] = THP-1 cell cytotoxicity, dose response, cytotoxicity control for non-replicating M. tuberculosis project (AID 489025); assay type: functional
[14] = system: INS1; assay: INS-1E survival protection against cytokine death – cell-based, luminescence, retest, dose response (AID 449756); assay type: functional; settings: Rattus norvegicus;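 note: cell death triggered by IL-1 beta plus TNF-alpha plus IFN-gamma mixture; protective hits raise ATP signal compared with cytokine alone wells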
[15] = cells; assay type: functional
[16] = Vero E6 cell cytotoxicity, dose response, cytotoxicity control for non-replicating M. tuberculosis project, secondary assay (AID 492998); assay type: functional, VeroE6; settings: Vero C1008
[17] = target: Eukaryotic translation initiation factor 4E (Mus musculus, UniProt P63073); assay: blockers of eIF4G binding by eIF4E – biochemical, TR-FRET, dose response (AID 855); assay type: functional;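 note: potency for disrupting eIF4E binding to eIF4GI seen as loss of FRET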
Chain of Eukaryotic translation initiation factor 4E (P63073 whole entry): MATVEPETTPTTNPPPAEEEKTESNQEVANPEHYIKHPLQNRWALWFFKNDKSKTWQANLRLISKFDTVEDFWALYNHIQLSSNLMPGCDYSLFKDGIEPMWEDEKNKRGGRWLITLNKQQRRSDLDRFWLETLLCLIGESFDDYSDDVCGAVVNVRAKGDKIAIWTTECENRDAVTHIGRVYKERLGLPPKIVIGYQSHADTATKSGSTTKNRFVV

[18] = target: Paired box protein Pax-8 (Homo sapiens, UniProt Q06710); assay: PAX8 transcriptional activity inhibition in RMG-I – RMG-I cells, luciferase, cherry-pick, dose response (AID 687027); assay type: functional, cell-based;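 note: luciferase reporter driven by Pax8 target thyroperoxidase promoter measured by SteadyGlo luminescence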
Chain of Paired box protein Pax-8 (Q06710 whole entry): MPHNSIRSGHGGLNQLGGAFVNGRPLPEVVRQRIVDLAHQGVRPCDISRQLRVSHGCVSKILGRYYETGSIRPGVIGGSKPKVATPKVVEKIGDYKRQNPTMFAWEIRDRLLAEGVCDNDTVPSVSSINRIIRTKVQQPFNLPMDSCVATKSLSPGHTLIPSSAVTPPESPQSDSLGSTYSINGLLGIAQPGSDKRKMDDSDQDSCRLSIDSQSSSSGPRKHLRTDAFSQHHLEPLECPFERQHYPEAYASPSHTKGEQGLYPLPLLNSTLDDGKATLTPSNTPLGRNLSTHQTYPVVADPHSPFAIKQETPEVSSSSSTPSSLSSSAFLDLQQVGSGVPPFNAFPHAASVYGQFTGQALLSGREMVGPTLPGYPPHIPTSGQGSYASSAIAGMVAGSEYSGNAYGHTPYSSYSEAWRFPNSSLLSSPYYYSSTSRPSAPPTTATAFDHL

[19] = OVCAR-3 cell viability loss – plate reader, dry powder samples, PAX8 inhibitor project, dose response (AID 743044); assay type: functional, cell-based
[20] = general cell-killing toxicity readout – plate reader, dry powder samples, cytotoxicity control for PAX8 inhibitor project, dose response (AID 743021); assay type: functional, cell-based
[21] = blockers of HIV-1 envelope-mediated cell-cell fusion – cherry-pick, dose response (AID 652057); assay type: functional, cell-based
[22] = HIV-1 AD8 envelope cell-cell fusion blockers – cherry-pick, dose response (AID 652062); assay type: functional, cell-based;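 note: luciferase signal from cell-cell fusion driven by HIV-1 clade B AD8 Env; potency is for inhibitors of fusion seen as a drop in luminescence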
[23] = blockers of HIV-1 ZM109 envelope-driven cell-cell fusion – HeLa effector, CEM target cells, luciferase, cherry-pick, dose response (AID 652058); assay type: functional, cell-based;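 note: luciferase signal from HIV-1 Env mediated cell-cell fusion of effector and target cells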

In the case of `CN(C)c1ccc(C=C2C(=O)OC(C)(C)OC2=O)cc1`, the IC50 [1] is reported as 5.16 µM (active), the EC50 [2] is reported as > 53 µM (inactive) and the IC50 [3] is reported as 7.91 µM (active).

In the case of `Cc1ccc(OCC(=O)Nc2ccc(N3CCCC3)cc2)cc1C`, the IC50 [4] is reported as 40.8 µM (active) and the IC50 [5] is reported as 6.68 µM (active).

For `O=C(COC(=O)CCC(=O)c1cccs1)Nc1ccccc1[N+](=O)[O-]`, the IC50 [6] was 6.93 µM (active).

With `Nc1cc(N)nc(SCCOc2ccccc2)n1` the EC50 [7] was > 54.7 µM (inactive), the EC50 [8] was > 55.9 µM (inactive) and the EC50 [9] was > 54.7 µM (inactive). The IC50 [10] was > 89.2 µM (inactive).

With `COc1ccc(N2C(=O)/C(=C/Nc3ccccc3)c3ccccc3C2=O)cc1` the IC50 [6] was > 50 µM (not active).

In the case of `Cn1c(C(C#N)C2=C(Cl)C(=O)N(c3ccccc3)C2=O)nc2ccccc21` (stereo unspecified), the IC50 [4] is reported as 16.5 µM (active).

In the case of `CCS(=O)(=O)NCc1ccc2c(c1)cc(C)n2C`, the IC50 [4] is reported as > 50 µM (inactive).

For `ClCCN1CCN(c2ccnc3cc(Cl)ccc23)CC1`, the AC50 [11] was 17.2 µM (active) and the IC50 [12] was > 20 µM (inactive).

With `Cc1cc(C)nc(-n2nc(C)cc2Nc2ccccc2)n1` the CC50 [13] was > 40 µM (active), the AC50 [14] was 2.91 µM (active) and the IC50 [15] was 0.5 µM (active). The IC50 [6] was > 50 µM (not active) and the CC50 [16] was > 20 µM (active).

In the case of `CC(NC(=O)CN(C1CCCCC1)S(C)(=O)=O)c1ccccc1` (stereo unspecified), the IC50 [6] is reported as > 50 µM (not active).

With `O=c1[nH]nc(SCc2nnc(-c3ccc([N+](=O)[O-])cc3)o2)n1C1CCCCC1` the IC50 [6] was 4.04 µM (active).

For `CC(=O)Nc1ccc(Nc2nc3ccccc3nc2NS(=O)(=O)c2ccc(Cl)c([N+](=O)[O-])c2)cc1`, the IC50 [1] was 6.14 µM (active), the EC50 [2] was > 53 µM (inactive) and the IC50 [3] was 10.2 µM (active).

In the case of `CCCCC[C@@H]1C=C(C(=O)O)[C@H](c2cccc(C)c2)N1S(=O)(=O)c1ccc(C)cc1`, the IC50 [1] is reported as 36.6 µM (active), the EC50 [2] is reported as 40.7 µM (active) and the IC50 [3] is reported as > 20 µM (inactive).

For `CN(c1ccccc1)S(=O)(=O)c1cccc(NC(=O)COc2cccc([N+](=O)[O-])c2)c1`, the EC50 [7] was > 54.7 µM (inactive), the EC50 [8] was > 55.9 µM (inactive) and the EC50 [9] was > 54.7 µM (inactive). The IC50 [1] was > 23.6 µM (inactive), the EC50 [2] was > 53 µM (inactive) and the IC50 [3] was > 20 µM (inactive). For the same compound, the IC50 [10] was > 89.2 µM (inactive).

For `COc1ccc(OC)c(C(=O)COC(=O)CN2C(=O)NC3(CCCCC3C)C2=O)c1` (stereo unspecified), the EC50 [7] was > 54.7 µM (inactive), the EC50 [8] was > 55.9 µM (inactive) and the EC50 [9] was > 54.7 µM (inactive). For the same compound, the IC50 [10] was > 89.2 µM (inactive).

In the case of `CO/N=C/C(C#N)c1ncc(C(F)(F)F)cc1Cl` (stereo unspecified), the IC50 [17] is reported as > 64 µM (inactive), the IC50 [1] is reported as 4.92 µM (active) and the EC50 [2] is reported as 5.81 µM (active). For the same compound, the IC50 [3] was 6.73 µM (active).

With `C[C@@H]1CN([C@H](C)CO)C(=O)c2cc(NC(=O)Nc3ccc(C(F)(F)F)cc3)ccc2O[C@@H](C)CCCCO[C@@H]1CN(C)C(=O)NC1CCCCC1` the AC50 [18] was 4.46 µM (active), the AC50 [19] was 35.7 µM (active) and the AC50 [20] was 2.66 µM (active).

For `C[C@@H]1CN([C@@H](C)CO)C(=O)Cc2cc(NS(=O)(=O)c3cccs3)ccc2O[C@H]1CN(C)Cc1ccc(C(F)(F)F)cc1`, the AC50 [18] was 5.33 µM (active), the AC50 [21] was 10.1 µM (active) and the AC50 [22] was 25.8 µM (active). For the same compound, the AC50 [19] was 32.8 µM (active) and the AC50 [23] was 1.39 µM (active).

In the case of `Cc1ccc(S(=O)(=O)Nc2ccc3c(c2)CC(=O)N([C@H](C)CO)C[C@H](C)[C@H](CN(C)S(=O)(=O)c2ccc(F)cc2)O3)cc1`, the AC50 [18] is reported as 25.3 µM (active), the AC50 [21] is reported as 5.23 µM (active) and the AC50 [22] is reported as 4.36 µM (active). For the same compound, the AC50 [19] was 59.2 µM (active) and the AC50 [23] was 5.04 µM (active).
